Here are results for three compounds from US11918618B2, “Composition for preventing or treating gastritis or peptic ulcer” (CHONG KUN DANG PHARMACEUTICAL CORP., priority 2017, dated 2024).

The conditions of data set [1]: reported in the literature; cited from earlier work.
In another data set the test system is stomach ulcer. Kind of data set: Inhibition of Indomethacin-induced stomach ulcer in rats (stomach ulcer index). The format is in vivo. The conditions noted are these: rat, single oral dose 75.0 mg/kg, Indomethacin 80 mg/kg. The protocol: In order to confirm the inhibition rate of stomach ulcer of the Example 1 and Comparative examples 1 to 6, the test was carried out according to the following method. Test animals were randomly assigned to 10 animals of specific pathogen free (SPF) 7-week-old rat males per group so that the average body weight was maximally uniformly distributed throughout the adaptation period (7 days). […] All animals were fasted 48 hours before administration of test substances and control drug, and then each of test substances and control drug was orally administered, and Indomethacin previously prepared 30 minutes after administration was orally administered at a dose of 80 mg/kg. After anesthetizing with diethyl ether 5 hours after administration of Indomethacin, stomach was removed and the gastric mucosa was photographed with a digital camera. The area of the damaged site was analyzed using ImageJ software (NIH, Bethesda, Md.). The stomach ulcer index was measured according to the following Equation 1. Stomach ulcer index (%)=(damage area/total area)×100 [Equation 1] The stomach ulcer test by volume for the Example 1 was tested by the method as Experimental example 1, and was shown in Table 5.

The next data set deals with PGE2. In words: Improvement of PGE2 in serum (PGE2 ELISA Kit) of Indomethacin-treated rats. The format is in vivo. Conditions: rat serum, oral dose 100.0 mg/kg. An excerpt:
Since the recovery mechanism of stomach mucous membrane blood stream and epithelial cells is maintained and the action of preserving cells of the stomach mucous membrane was shown, when PGE2 in serum is increased, the enhanced improvement of PGE2 affects treatment of gastritis or stomach ulcer. In order to confirm the effect of the Example 1 and Comparative examples 2, 5 to 6 according to the present invention for this improvement of PGE2, for the blood collected in Test example 2, serum was separated according to the protocol provided by the manufacturer of PGE2 ELISA Kit and then sampling treatment was carried out, and then it was analyzed, and the result was shown in the following Table 4.
On the technique in general: An ELISA detects its analyte on a solid surface through an enzyme-linked reagent.

The test system of a further data set is stomach mucus. In words: Effect of improving stomach mucosal amount (alcian blue binding) in Indomethacin-treated rats. The format is in vivo. The conditions noted are these: rat, oral dose 100.0 mg/kg, Indomethacin 80 mg/kg. The protocol:
In order to confirm the effect of improving the mucosal amount of the Example 1 and Comparative examples 1 to 6, the test was carried out according to the following method. Test animals were randomly assigned to 10 animals of specific pathogen free (SPF) 7-week-old rat males per group so that the average body weight was maximally uniformly distributed throughout the adaptation period (7 days). All animals were fasted 48 hours before administration and then test substances and control drug were orally administered, and 30 minutes after administration, Indomethacin 80 mg/kg was orally administered. […] After mixing the extract solution with diethyl ether in the same amount and shaking, it was centrifuged at 3,500 rpm for 10 minutes and for the supernatant, the absorbance was measured at 605 nm. 0.1% w/v alcian blue 8 GX solution was diluted with 0.25 M sucrose solution and standard solution was prepared and thereby a standard curve was fabricated and the measured absorbance value was converted into the amount of alcian blue combined with the stomach mucus, and the result was shown in Table 3.

Consider `O=C/C=C/c1ccccc1` [cinnamic aldehyde], for which, in data set [1], the “stability at the room temperature” value is “low”.

Take `CNC(=C[N+](=O)[O-])NCCSCc1ccc(CN(C)C)o1` [Comparative example 4, Ranitidine]: in the data set on stomach ulcer, the “Inhibition rate (%), compared to the induced group” value is 97.0% and the “Stomach ulcer index (%)” value was determined as 0.20 ± 0.29 %.

In the data set with PGE2, `O=C(NC(Cc1cc(=O)[nH]c2ccccc12)C(=O)O)c1ccc(Cl)cc1` (stereo not shown) [Comparative example 5, Rebamipide] returned a PGE2 of 1.82 ± 0.14 ng/mL. For the same compound, the “PGE2, % compared to the normal group” value in the data set on PGE2 (normal group 100, induced group 0) was 77.7%. In the data set on stomach mucus, the Mucosal amount was found to be 10.6 ± 3.7 µg/L and the “Mucosal amount, % compared to the normal group” value was determined as 94.6%.
